{"source": "patent US20250064762A1", "about": "“A SUBSTITUTED AROMATIC DICARBONIC ACID AMIDE AS AN INHIBITOR OF THE FERROPTOSIS SUPPRESSOR PROTEIN-1 (FSP1)” (JULIUS-MAXIMILIANS-UNIVERSITÄT WÜRZBURG, priority 2021, published 2025)", "key": {"[1]": {"system": "HT1080 cells", "assay": "Mass spectrometry lipidomics of CPBA-treated cells", "type": "cell-based, human", "conditions": "200 μM CPBA, 16 h", "experimental": "Mass spectrometry-based lipid analysis was performed by Lipotype GmbH (Dresden, Germany) as described (Sampaio et al. 2011). Lipids were extracted using a two-step chloroform/methanol procedure (Ejsing et al. 2009). […]\nSamples were analyzed by direct infusion on a QExactive mass spectrometer (Thermo Fisher Scientific) equipped with a TriVersa NanoMate ion source (Advion Biosciences). Samples were analyzed in both positive and negative ion modes with a resolution of Rm/z=200=280000 for MS and Rm/z=200=17500 for MSMS experiments, in a single acquisition. […]\nData were analyzed with in-house developed lipid identification software based on LipidXplorer (Herzog et al. 2011; Herzog et al. 2012). […]\nNext, we analyzed the lipidomic signature of HT1080 cells treated with CPBA (200 μM, 16 h) using the lipidomics methods described above. […]"}, "[2]": {"system": "HT1080 cells", "assay": "Lipid peroxidation, BODIPY 581/591-C11 probe, flow cytometry", "type": "cell-based, human", "conditions": "100 μM CPBA; 16 h; subeffective RSL3, FIN56 or BSO", "experimental": "Approximately 10,000 HT1080 cells were seeded per well of a 48-well dish. The next day, cells were treated for 16 h with DMSO (0.1%, solvent control), CPBA (100 μM), or liproxstatin-1 (100 nM) in the absence or presence of subeffective concentrations of RSL3 (50 nM), FIN56 (50 nM), or BSO (1 μM). Cells were incubated with the BODIPY 581/591-C11 probe (1 μM) for 30 min at 37° C. in a tissue culture incubator, harvested by trypsinization, and resuspended in 500 μL phosphate-buffered saline supplemented with 0.5 mg/mL soybean trypsin inhibitor (Sigma Aldrich). Cells were analyzed using the 488-nm laser of a flow cytometer (FACSCalibur, BD Biosciences) for excitation. […] At least 5,000 cells were analyzed per sample. […]\nEffects of CPBA on cellular lipid peroxidation were investigated using a BODIPY 581/591-C11 probe as described above. […] Oxidation of the polyunsaturated butadienyl portion of the dye results in a shift of the fluorescence emission peak from about 595 nm (nonoxidized form) to about 520 nm (oxidized form) (see FIG. 8).\nHT1080 cells were incubated for 16 h with DMSO (0.1%, solvent control), CPBA (100 μM), or liproxstatin-1 (lip-1, 100 nM) in the absence or presence of subeffective concentrations of RSL3 (50 nM), FIN56 (50 nM), or BSO (1 μM). Fluorescence intensity was quantified by flow cytometry using a 530 nm band-pass filter as described above and quantified. […]"}, "[3]": {"system": "mouse embryonic fibroblasts (MEFs)", "assay": "FIN-induced ferroptosis in Pgp-wildtype or heterozygous Pgp-inactivated MEFs", "type": "cell-based", "experimental": "(§1) Cells were seeded onto 96-well plates (5,000 cells per well), and treated with serial dilutions of ferroptosis-inducing compounds (erastin, BSO, RSL3, FIN56) or cytotoxic drugs (staurosporine, nocodazole, tunicamycin, paclitaxel, etoposide, menadione, rotenone, FCCP, carboplatin) in the absence or presence of CPBA or iFSP1 (100 μM or 10 μM, respectively; unless stated otherwise) or the DMSO solvent control. Ferroptotic cell death was evaluated by incubating in the absence or presence of liproxstatin-1 (100 nM), ferrostatin-1 (200 nM), or deferoxamine (100 μM). Cell viability was assessed after 16 h using AquaBluer as an indicator of viable cells according to the manufacturer's recommendations (MultiTarget Pharmaceuticals, LLC). Fluorescence (excitation, 540 nm; emission, 590 nm) was analyzed on a Clariostar microplater reader.\nThe above experiment was repeated in mouse embryonic fibroblasts (MEFs) generated from Pgp-wildtype (Pgp^fl/fl) or heterozygous Pgp-inactivated mouse embryos (Pgp^fl/D34N)."}, "[4]": {"system": "HT1080 cells", "assay": "FIN56-induced cell death with or without DGAT1/2 inhibitors", "type": "cell-based, human", "conditions": "CPBA versus CPBA+iDGAT1/2", "experimental": "as §1\nThe diglyceride acyltransferase isoforms 1 and 2 (DGAT1, DGAT2) are required to catalyze the formation of triglycerides from diacylglycerol and acyl-CoA."}}}
{"smiles": "O=C(Nc1ccccc1C(=O)O)c1ccc(Oc2ccc(C(=O)Nc3ccccc3C(=O)O)cc2)cc1", "note": "[CPBA, 2-[[4-[4-[(2-carboxyphenyl)carbamoyl]phenoxy]benzoyl]amino]-benzoic acid]", "values": [{"measurement": "PUFA ether lipids (PE-O, PC-O)", "setting": "[1]", "result": "downregulate polyunsaturated fatty acid (PUFA) ether lipids"}, {"measurement": "PUFA-triacylglycerides", "setting": "[1]", "result": "upregulate PUFA-triacylglycerides (PUFA-TAGS)"}, {"measurement": "amount of lipid peroxidation", "setting": "[2]", "result": "the amount of lipid peroxidation in the cells is increased"}, {"measurement": "sensitization to FIN-induced ferroptosis in Pgp^fl/fl and Pgp^fl/D34N cells", "setting": "[3]", "result": "able to sensitize both Pgp^fl/fl and Pgp^fl/D34N cells to FIN-induced ferroptosis"}, {"measurement": "influence of lipid droplets on sensitization to FIN56-induced cell death", "setting": "[4]", "result": "the absence or presence of lipid droplets did not influence the CPBA-mediated sensitization of HT1080 cells to FIN56-induced cell death"}]}
